According to article PMC10987480, “Biological and mutational analyses of CXCR4–antagonist interactions and design of new antagonistic analogs” (Bioscience Reports, 2023):
Positions of bridges follow the written chain, without caps; N, C: chain ends. Non-standard residues stand in square brackets, D forms with d. Residues, ends and D or L forms follow the SMILES beside them. Chains are numbered I, II in the order given. 2Nal = N[C@@H](Cc1ccc2ccccc2c1)C(=O)O; Lys(iPr) = CC(C)NCCCC[C@H](N)C(=O)O

Key:
CXCR4 R30A = molecular target: T1, CXCR4 R30A (Homo sapiens, UniProt P61073, R30A); assay: Competitive binding to CXCR4 mutant R30A (12G5, CHO cells); design: key to the marks not given beside the values; details: TM1, class of reduction vs wild-type CXCR4, 12G5 competition, averages of at least three independent experiments
T1 construct: expressed in transfected cells
Method: (§1) Plasmid pcDNA3-CXCR4 and mutated pcDNA3-CXCR4 were extracted and transfected into CHO cells using Lipofectamine 2000 according to the manufacturer’s guidelines. The selective medium containing G418 at a concentration of 1.2 mg/ml was applied to isolate stably transfected cells. CHO cells expressing wild-type CXCR4 and mutant CXCR4 were obtained using fluorescence-activated cell sorting (FACS).
(§2) All of the CXCR4 mutants were prepared using PCR technology. Briefly, pairs of asymmetrical primers containing the desired amino acid mutations (Supplementary Tables S1 and S2), each complementary to opposite strands of the pcDNA3–CXCR4, were designed for amplification by Q5® High-Fidelity DNA polymerase and the generation of mutated constructs. The methylated pcDNA3–CXCR4 templates were digested by DpnI. The mutated pcDNA3–CXCR4 was transformed into competent E. coli TOP10 for long-term storage and amplification.
(§3) The procedure for the CXCR4 competitive binding experiments was published previously. Briefly, CXCR4 antibody 12G5 (250 ng/ml) was incubated with 5 × 10^5 cells and varying concentrations of unlabeled compounds in a final volume of 100 μl of assay buffer (PBS with 0.5% BSA and 0.05% NaN3) in 96-well plates for 40 min on ice, after being washed with assay buffer once. The cells were incubated with FITC-conjugated second antibody IgG for 30 min on ice, then washed with assay buffer three times. The fluorescence intensity was measured for excitation at 485 nm and emission at 535 nm using multimode plate reader (PerkinElmer). The IC50 values were calculated using graphpad Prism 7. Experiments were performed at least three times.

CXCR4 Y45A = molecular target: T2, CXCR4 Y45A (Homo sapiens, UniProt P61073, Y45A); assay: Competitive binding to CXCR4 mutant Y45A (12G5, CHO cells); details: TM1, class of reduction vs wild-type CXCR4, 12G5 competition, averages of at least three independent experiments
T2 construct: expressed in transfected cells
Method: as §1, §2, §3

CXCR4 V112A = molecular target: T3, CXCR4 V112A (Homo sapiens, UniProt P61073, V112A); assay: Competitive binding to CXCR4 mutant V112A (12G5, CHO cells); details: TM3, class of reduction vs wild-type CXCR4, 12G5 competition, averages of at least three independent experiments
T3 construct: expressed in transfected cells
Method: as §1, §2, §3

CXCR4 H113A = molecular target: T4, CXCR4 H113A (Homo sapiens, UniProt P61073, H113A); assay: Competitive binding to CXCR4 mutant H113A (12G5, CHO cells); details: TM3, class of reduction vs wild-type CXCR4, 12G5 competition, averages of at least three independent experiments
T4 construct: expressed in transfected cells
Method: as §1, §2, §3

CXCR4 T117A = molecular target: T5, CXCR4 T117A (Homo sapiens, UniProt P61073, T117A); assay: Competitive binding to CXCR4 mutant T117A (12G5, CHO cells); details: TM3, class of reduction vs wild-type CXCR4, 12G5 competition, averages of at least three independent experiments
T5 construct: expressed in transfected cells
Method: as §1, §2, §3

CXCR4 W161A = molecular target: T6, CXCR4 W161A (Homo sapiens, UniProt P61073, W161A); assay: Competitive binding to CXCR4 mutant W161A (12G5, CHO cells); details: TM4, class of reduction vs wild-type CXCR4, 12G5 competition, averages of at least three independent experiments
T6 construct: expressed in transfected cells
Method: as §1, §2, §3

CXCR4 D171A = molecular target: T7, CXCR4 D171A (Homo sapiens, UniProt P61073, D171A); assay: Competitive binding to CXCR4 mutant D171A (12G5, CHO cells); details: TM4, class of reduction vs wild-type CXCR4, 12G5 competition, averages of at least three independent experiments
T7 construct: expressed in transfected cells
Method: as §1, §2, §3

CXCR4 Q200A = molecular target: T8, CXCR4 Q200A (Homo sapiens, UniProt P61073, Q200A); assay: Competitive binding to CXCR4 mutant Q200A (12G5, CHO cells); design: key to the marks not given beside the values; details: TM5, class of reduction vs wild-type CXCR4, 12G5 competition, averages of at least three independent experiments
T8 construct: expressed in transfected cells
Method: as §1, §2, §3

CXCR4 I259A = molecular target: T9, CXCR4 I259A (Homo sapiens, UniProt P61073, I259A); assay: Competitive binding to CXCR4 mutant I259A (12G5, CHO cells); design: key to the marks not given beside the values; details: TM6, class of reduction vs wild-type CXCR4, 12G5 competition, averages of at least three independent experiments
T9 construct: expressed in transfected cells
Method: as §1, §2, §3

CXCR4 I284A = molecular target: T10, CXCR4 I284A (Homo sapiens, UniProt P61073, I284A); assay: Competitive binding to CXCR4 mutant I284A (12G5, CHO cells); details: TM7, class of reduction vs wild-type CXCR4, 12G5 competition, averages of at least three independent experiments
T10 construct: expressed in transfected cells
Method: as §1, §2, §3

CXCR4 E288Q = molecular target: T11, CXCR4 E288Q (Homo sapiens, UniProt P61073, E288Q); assay: Competitive binding to CXCR4 mutant E288Q (12G5, CHO cells); details: TM7, class of reduction vs wild-type CXCR4, 12G5 competition, averages of at least three independent experiments
T11 construct: expressed in transfected cells
Method: as §1, §2, §3

CXCR4 E288D = molecular target: T12, CXCR4 E288D (Homo sapiens, UniProt P61073, E288D); assay: Competitive binding to CXCR4 mutant E288D (12G5, CHO cells); details: TM7, class of reduction vs wild-type CXCR4, 12G5 competition, averages of at least three independent experiments
T12 construct: expressed in transfected cells
Method: as §1, §2, §3

CXCR4 [1] = molecular target: CXCR4 (Homo sapiens, UniProt P61073); assay: SDF-1α-induced calcium mobilization assay in SupT1 cells (Fluo-4); type: cell-based; design: host or cells: SupT1 cells; details: 50 nM SDF-1α
Method: Figure 2 The inhibitory effect of the antagonists on SDF-1α-induced cell chemotaxis and calcium mobilization in SupT1 cells The antagonists and concentrations used were labeled in each lane. (A) The inhibition of cell migration by the noted antagonists. SupT1 cells pre-treated with or without CXCR4 antagonists were seeded in the upper well and cell migrated by 2 nM SDF-1α. Migrated cells without SDF-1α were used as a negative (0%) and migrated cell induced by SDF-1α as a positive control (100%). […] SupT1 cells were treated with or without CXCR4 antagonists and activated by 50 nM SDF-1α. To directly compare the inhibitory effect of the antagonists on calcium mobilization, the vehicle background and baseline were removed using GraphPad and Origin. The data were averages of at least three independent experiments.
SupT1 cells were collected and washed using HHBS buffer (Hanks’ Balanced Salt solution supplemented with 20 mM HEPES) and incubated with 1 mM probenecid (Energy Chemical, China) and 4 μM Fluo-4 (AAT bioquest, U.S.A.) for 37°C for 30 min with vortex every 5 min. After being washed with HHBS, cells were suspended in PBS at 2 × 10^6/ml and seeded 200 μl cells and various concentrations of compounds per well in 96-well plate. Following 50 nM SDF-1α was added to each well, the fluorescence intensity was measured (Ex/Em = 496/516 nm) using EnSpire® multimode plate reader (PerkinElmer, U.S.A.).

CXCR4 [2] = details: cited from earlier work
Text: To understand the receptor–ligand recognition mechanism involving CXCR4 and its antagonists, here in this study we conducted a series of comparative analyses of the biological activities and CXCR4 binding sites of eleven known CXCR4 antagonists, including the three mentioned above, using cell-based bioassays, CXCR4 site-directed mutagenesis and computer-aided molecular modeling. These antagonists studied here were chosen from different representative structural types including both D-peptides (i.e., HC4319, DV1, DV1 dimer, and DV3) and a representative counterpart L-peptide (i.e., V1) derived ...

T5 sequence (P61073 whole entry T117A): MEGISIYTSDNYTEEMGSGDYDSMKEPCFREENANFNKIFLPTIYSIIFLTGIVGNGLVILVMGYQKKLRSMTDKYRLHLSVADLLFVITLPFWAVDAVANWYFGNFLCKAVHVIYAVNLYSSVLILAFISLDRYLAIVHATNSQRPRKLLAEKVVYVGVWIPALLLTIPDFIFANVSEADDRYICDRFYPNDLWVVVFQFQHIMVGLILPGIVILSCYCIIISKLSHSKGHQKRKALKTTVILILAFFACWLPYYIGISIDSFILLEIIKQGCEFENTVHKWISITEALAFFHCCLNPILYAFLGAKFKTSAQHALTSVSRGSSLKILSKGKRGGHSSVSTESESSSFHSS
Chain of CXCR4 (Homo sapiens, UniProt P61073) (P61073 whole entry): as the sequence (P61073 whole entry T117A) above, with A117T counted along it
T2 sequence (P61073 whole entry Y45A): as the sequence (P61073 whole entry T117A) above, with Y45A, A117T counted along it
T6 sequence (P61073 whole entry W161A): as the sequence (P61073 whole entry T117A) above, with A117T, W161A counted along it
T1 sequence (P61073 whole entry R30A): as the sequence (P61073 whole entry T117A) above, with R30A, A117T counted along it
T3 sequence (P61073 whole entry V112A): as the sequence (P61073 whole entry T117A) above, with V112A, A117T counted along it
T10 sequence (P61073 whole entry I284A): as the sequence (P61073 whole entry T117A) above, with A117T, I284A counted along it
T4 sequence (P61073 whole entry H113A): as the sequence (P61073 whole entry T117A) above, with H113A, A117T counted along it
T9 sequence (P61073 whole entry I259A): as the sequence (P61073 whole entry T117A) above, with A117T, I259A counted along it
T7 sequence (P61073 whole entry D171A): as the sequence (P61073 whole entry T117A) above, with A117T, D171A counted along it
T12 sequence (P61073 whole entry E288D): as the sequence (P61073 whole entry T117A) above, with A117T, E288D counted along it
T8 sequence (P61073 whole entry Q200A): as the sequence (P61073 whole entry T117A) above, with A117T, Q200A counted along it
T11 sequence (P61073 whole entry E288Q): as the sequence (P61073 whole entry T117A) above, with A117T, E288Q counted along it

SMILES | Competitive receptor binding activity, CXCR4 R30A (CXCR4 R30A) | Competitive receptor binding activity, CXCR4 Y45A (CXCR4 Y45A) | Competitive receptor binding activity, CXCR4 V112A (CXCR4 V112A) | Competitive receptor binding activity, CXCR4 H113A (CXCR4 H113A) | Competitive receptor binding activity, CXCR4 T117A (CXCR4 T117A) | Competitive receptor binding activity, CXCR4 W161A (CXCR4 W161A) | Competitive receptor binding activity, CXCR4 D171A (CXCR4 D171A) | Competitive receptor binding activity, CXCR4 Q200A (CXCR4 Q200A) | Competitive receptor binding activity, CXCR4 I259A (CXCR4 I259A) | Competitive receptor binding activity, CXCR4 I284A (CXCR4 I284A) | Competitive receptor binding activity, CXCR4 E288Q (CXCR4 E288Q) | Competitive receptor binding activity, CXCR4 E288D (CXCR4 E288D) | inhibition at 1 µM (CXCR4 [1]; SUP-T1, at 1 μM) [%] | Binding affinity (in words) (CXCR4 [2]) | Inhibition of calcium mobilization (in words) (CXCR4 [1]; single concentration (Figure 2B))
CC(C)C[C@@H](N)C(=O)NCC(=O)N[C@H](C)C(=O)N[C@H](CO)C(=O)N[C@H](Cc1c[nH]c2ccccc12)C(=O)N[C@H](Cc1c[nH]cn1)C(=O)N[C@H](CCCNC(=N)N)C(=O)N1CCC[C@@H]1C(=O)N[C@H](CC(=O)O)C(=O)N[C@H](CCCCN)C(=O)NCCCC[C@@H](NC(=O)[C@H]1CCCN1C(=O)[C@@H](CC(C)C)NC(=O)[C@H]1CCCN1C(=O)[C@@H](CCCNC(=N)N)NC(=O)[C@@H](CCCCN)NC(=O)[C@@H](CCC(N)=O)NC(=O)[C@@H](Cc1ccc(O)cc1)NC(=O)CNC(=O)[C@@H](CC(C)C)NC(=O)[C@@H](CS)NC(=O)[C@@H](CS)NC(=O)[C@@H](CCCCN)NC(=O)[C@@H](CC(=O)O)NC(=O)[C@H]1CCCN1C(=O)[C@@H](CCCNC(=N)N)NC(=O)[C@@H](Cc1c[nH]cn1)NC(=O)[C@@H](Cc1c[nH]c2ccccc12)NC(=O)[C@@H](CO)NC(=O)[C@@H](C)NC(=O)CNC(=O)[C@H](N)CC(C)C)C(=O)O [HC4319] (I: H-[dL]G[dA][dS][dW][dH][dR][dP][dD][dK][dC][dC][dL]G[dY][dQ][dK][dR][dP][dL][dP][dK]-OH / II: H-[dL]G[dA][dS][dW][dH][dR][dP][dD][dK]; amide I:22-II:C; N-terminus and C-terminus assumed) | +++ | + (30–60% reduction compared with wild-type CXCR4) | +++ | ++ (10–29% reduction compared with wild-type CXCR4) | +++ | +++ | +++ | +++ | +++ | +++ | ++ (10–29% reduction compared with wild-type CXCR4) | + (30–60% reduction compared with wild-type CXCR4) | 77 | – | –
CC(C)NCCCC[C@H](NC(=O)[C@H]1CCC(=O)N[C@@H](Cc2ccccc2)C(=O)N[C@@H](Cc2ccc(O)cc2)C(=O)N[C@@H](CCCCNC(C)C)C(=O)N[C@H](CCCNC(=N)N)C(=O)N[C@@H](Cc2ccc3ccccc3c2)C(=O)NCC(=O)N1)C(N)=O [LY2510924] (FY[Lys(iPr)][dR][2Nal]G[dE][Lys(iPr)]-NH2; lactam N-7 (inferred)) | +++ | + (30–60% reduction compared with wild-type CXCR4) | ++ (10–29% reduction compared with wild-type CXCR4) | + (30–60% reduction compared with wild-type CXCR4) | + (30–60% reduction compared with wild-type CXCR4) | ++ (10–29% reduction compared with wild-type CXCR4) | – | – | – | ++ (10–29% reduction compared with wild-type CXCR4) | – | – | – | subnanomolar | significant inhibition
